Source: the supplement of paper PMC10307832

Legend:
Assay in all cases: relative viability (nuclei count vs DMSO), 5 days (fraction); higher = more cells survive
[1] = compound: C1=CC2=C(C=C(C(=C2N=C1)O)N=NC3=CC4=C(C=C3)C=C(C=C4)S(=O)(=O)O)S(=O)(=O)O + N=C(N)NC(=N)NCCc1ccccc1 [Phenformin] (partner 250 µM)
How it was run: (§1)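 Lung cancer cell lines in 1536-well plates got either a single drug or a fixed anchor-drug dose together with five library-drug doses (not always all listed) in √10 steps, by pin tool, on the day after seeding. Nuclei were counted after 5 days, and relative viability is the treated-to-vehicle ratio of nuclei counts. Values are medians of duplicate plates.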

AT-7519 + Luminespib = compound: O=C(NC1CCNCC1)c1n[nH]cc1NC(=O)c1c(Cl)cccc1Cl [AT-7519] + CCNC(=O)c1noc(-c2cc(C(C)C)c(O)cc2O)c1-c1ccc(CN2CCOCC2)cc1 [Luminespib] (partner 0.01 µM)
How it was run: as §1

AT-7519 + Alpelisib = compound: O=C(NC1CCNCC1)c1n[nH]cc1NC(=O)c1c(Cl)cccc1Cl [AT-7519] + Cc1nc(NC(=O)N2CCC[C@H]2C(N)=O)sc1-c1ccnc(C(C)(C)C(F)(F)F)c1 [Alpelisib] (partner 2 µM)
How it was run: as §1

[2] = compound: C1=CC2=C(C=C(C(=C2N=C1)O)N=NC3=CC4=C(C=C3)C=C(C=C4)S(=O)(=O)O)S(=O)(=O)O + CC1(C)CCC(c2ccc(Cl)cc2)=C(CN2CCN(c3ccc(C(=O)NS(=O)(=O)c4ccc(N[C@H](CCN5CCOCC5)CSc5ccccc5)c(S(=O)(=O)C(F)(F)F)c4)cc3)CC2)C1 [Navitoclax] (partner 0.5 µM)
How it was run: as §1

Cell Line | relative viability ([1]; first compound 0.08 µM) | relative viability ([1]; first compound 0.253 µM) | relative viability ([1]; first compound 0.8 µM) | relative viability ([1]; first compound 2.53 µM) | relative viability ([1]; first compound 8 µM) | relative viability (AT-7519 + Luminespib; first compound 0.01 µM) | relative viability (AT-7519 + Luminespib; first compound 0.03162 µM) | relative viability (AT-7519 + Luminespib; first compound 0.3162 µM) | relative viability (AT-7519 + Luminespib; first compound 1 µM) | relative viability (AT-7519 + Alpelisib; first compound 0.01 µM) | relative viability (AT-7519 + Alpelisib; first compound 0.03162 µM) | relative viability (AT-7519 + Alpelisib; first compound 0.3162 µM) | relative viability (AT-7519 + Alpelisib; first compound 1 µM) | relative viability ([2]; first compound 0.08 µM) | relative viability ([2]; first compound 0.253 µM) | relative viability ([2]; first compound 0.8 µM) | relative viability ([2]; first compound 2.53 µM) | relative viability ([2]; first compound 8 µM)
SK-MES-1 | 0.731 | 0.674 | 0.672 | 0.692 | 0.652 | 0.847 | 0.734 | 0.593 | 0.33 | 0.839 | 0.699 | 0.86 | 0.397 | 1.26 | 1.16 | 1.31 | 1.26 | 1.19
SW 1573 | 0.406 | 0.478 | 0.418 | 0.3 | 0.296 | 0.223 | 0.203 | 0.149 | 0.126 | 0.802 | 0.739 | 0.743 | 0.394 | 1.01 | 0.971 | 1.03 | 0.964 | 0.977
